Assay results as given in patent US12594349B2, “Compositions and methods for the targeting of PCSK9” (Scribe Therapeutics Inc., priority 2022, dated 2026).

Test system: human PCSK9 locus
Experiment: Secreted PCSK9 by ELISA in Huh7 cells transfected with mRNA and gRNA
Type: cell-based
Details: for Percent reduction in PCSK9 secretion / Average percent reduction in PCSK9 secretion / Secreted PCSK9: Huh7 cells; for Percent reduction in PCSK9 secretion / Average percent reduction in PCSK9 secretion: LTRP5-ADD-ZIM3 mRNA; for Percent reduction in PCSK9 secretion: day 6, relative to non-targeting gRNA control; for Average percent reduction in PCSK9 secretion: day 6, averaged from the two doses; for Secreted PCSK9: 6 days post-transfection, normalized to total cell count
Procedure: To assess PCSK9 secretion, seeded Huh7 cells were transfected with mRNA encoding a catalytically-active CasX 676, dXR1, or LTRP5-ADD-ZIM3 and a gRNA with scaffold 316 and spacer targeting either the B2M or PCSK9 locus. Media supernatant was harvested at 6, 18, 36, and 87 days post-transfection to assess level of PCSK9 secretion by ELISA. Levels of PCSK9 secretion were normalized to total cell count. As an additional control, PCSK9 secretion was also measured in the media supernatant harvested from wells containing untreated, naïve cells.
The following three human hepatocyte cancer cell lines were used in this experiment: HepG2 cells, Hep3B cells, and Huh7 cells. ˜15,000 cells of each cell line were seeded per well; the next day, seeded cells were transfected with mRNA encoding a catalytically-active CasX 676, dXR1, or LTRP5-ADD-ZIM3 and a gRNA with scaffold 316 and spacer targeting either the B2M or PCSK9 locus (see Table 23 for specific spacers and sequences). Media supernatant was harvested at 4 days post-transfection to assess level of PCSK9 secretion by ELISA, and levels of PCSK9 secretion were normalized to total cell count and illustrated in FIGS. 11A-11C. Culturing of treated Huh7 cells continued, and media supernatant was harvested at 14 and 27 days post-transfection for measuring PCSK9 secretion by ELISA. As an additional experimental control, PCSK9 secretion was also measured in the media supernatant harvested from wells containing untreated, naïve cells.
To assess PCSK9 secretion, seeded Huh7 cells were co-transfected with mRNA encoding for LTRP5-ADD-ZIM3 and a gRNA with scaffold 316 and spacer targeting the PCSK9 locus using Lipofectamine™ 3000. Two doses of total RNA input at a 2:1 mass ratio of mRNA to gRNA were used for screening: 50 ng mRNA:25 ng gRNA and 25 ng mRNA:12.5 ng gRNA. Media supernatant was harvested at 6 days post-transfection to assess level of PCSK9 secretion by ELISA (Table 74). Levels of PCSK9 secretion were normalized to total cell count. As an additional control, PCSK9 secretion was also measured in the media supernatant harvested from cells transfected with mRNA encoding for mScarlet.

[1] = LTRP5-ADD-ZIM3 mRNA + gRNA scaffold 316, 25 ng mRNA:12.5 ng gRNA
[2] = LTRP5-ADD-ZIM3 mRNA + gRNA scaffold 316, 50 ng mRNA:25 ng gRNA

## Non-targeting (guide CGAGACGTAATTACGTCTCG; chemistry not given here)
25 ng mRNA:12.5 ng gRNA
  Percent reduction in PCSK9 secretion: 0%
50 ng mRNA:25 ng gRNA
  Percent reduction in PCSK9 secretion: 0%
  Average percent reduction in PCSK9 secretion: 0%

## TG-06-002 (guide ACCGCUGCGCCAAGGUGCGG; listed as RNA, chemistry not given here)
50 ng mRNA:25 ng gRNA
  Percent reduction in PCSK9 secretion: 0.4%

## TG-06-004 (guide GCCAGGCCGUCCUCCUCGGA; listed as RNA, chemistry not given here)
[1]
  Secreted PCSK9: 73.05 ng/mL
[2]
  Secreted PCSK9: 54.83 ng/mL
25 ng mRNA:12.5 ng gRNA
  Percent reduction in PCSK9 secretion: 2.54%
50 ng mRNA:25 ng gRNA
  Percent reduction in PCSK9 secretion: 33.35%
  Average percent reduction in PCSK9 secretion: 15.41%

## TG-06-005 (guide GUGCUCGGGUGCUUCGGCCA; listed as RNA, chemistry not given here)
[1]
  Secreted PCSK9: 76.37 ng/mL
[2]
  Secreted PCSK9: 67.08 ng/mL
25 ng mRNA:12.5 ng gRNA
  Percent reduction in PCSK9 secretion: 7.19%
50 ng mRNA:25 ng gRNA
  Percent reduction in PCSK9 secretion: 18.47%
  Average percent reduction in PCSK9 secretion: 5.64%

## TG-06-117 (guide ACUUUGUUUGCAAAGACCUC; listed as RNA, chemistry not given here)
[1]
  Secreted PCSK9: 98.05 ng/mL
[2]
  Secreted PCSK9: 68.98 ng/mL
25 ng mRNA:12.5 ng gRNA
  Percent reduction in PCSK9 secretion: 37.62%
50 ng mRNA:25 ng gRNA
  Percent reduction in PCSK9 secretion: 16.16%
  Average percent reduction in PCSK9 secretion: 10.73%

## TG-06-118 (guide GAGUGAAAUGGCCUGCUCUG; listed as RNA, chemistry not given here)
[1]
  Secreted PCSK9: 54.78 ng/mL
[2]
  Secreted PCSK9: 35.5 ng/mL
25 ng mRNA:12.5 ng gRNA
  Percent reduction in PCSK9 secretion: 23.11%
50 ng mRNA:25 ng gRNA
  Percent reduction in PCSK9 secretion: 56.86%
  Average percent reduction in PCSK9 secretion: 39.99%

## TG-06-119 (guide GAGCAGGCCAUUUCACUCGG; listed as RNA, chemistry not given here)
[1]
  Secreted PCSK9: 84.54 ng/mL
[2]
  Secreted PCSK9: 70.37 ng/mL
25 ng mRNA:12.5 ng gRNA
  Percent reduction in PCSK9 secretion: 18.66%
50 ng mRNA:25 ng gRNA
  Percent reduction in PCSK9 secretion: 14.47%
  Average percent reduction in PCSK9 secretion: 2.1%

## TG-06-120 (guide CUCGGAAUCUGCUGUGCAUC; listed as RNA, chemistry not given here)
[1]
  Secreted PCSK9: 47.97 ng/mL
[2]
  Secreted PCSK9: 21.43 ng/mL
25 ng mRNA:12.5 ng gRNA
  Percent reduction in PCSK9 secretion: 32.67%
50 ng mRNA:25 ng gRNA
  Percent reduction in PCSK9 secretion: 73.95%
  Average percent reduction in PCSK9 secretion: 53.31%

## TG-06-121 (guide GGAAGGGCUGUCGAUACUGG; listed as RNA, chemistry not given here)
[1]
  Secreted PCSK9: 37.13 ng/mL
[2]
  Secreted PCSK9: 28.33 ng/mL
25 ng mRNA:12.5 ng gRNA
  Percent reduction in PCSK9 secretion: 47.89%
50 ng mRNA:25 ng gRNA
  Percent reduction in PCSK9 secretion: 65.57%
  Average percent reduction in PCSK9 secretion: 56.73%

## TG-06-122 (guide CCUUUGUUUCUUCCCAGUAU; listed as RNA, chemistry not given here)
[1]
  Secreted PCSK9: 86.06 ng/mL
[2]
  Secreted PCSK9: 79.36 ng/mL
25 ng mRNA:12.5 ng gRNA
  Percent reduction in PCSK9 secretion: 20.79%
50 ng mRNA:25 ng gRNA
  Percent reduction in PCSK9 secretion: 3.54%
  Average percent reduction in PCSK9 secretion: 8.63%

## TG-06-123 (guide UCCCAGUAUCGACAGCCCUU; listed as RNA, chemistry not given here)
[1]
  Secreted PCSK9: 51.32 ng/mL
[2]
  Secreted PCSK9: 30.49 ng/mL
25 ng mRNA:12.5 ng gRNA
  Percent reduction in PCSK9 secretion: 27.97%
50 ng mRNA:25 ng gRNA
  Percent reduction in PCSK9 secretion: 62.95%
  Average percent reduction in PCSK9 secretion: 45.46%

## TG-06-124 (guide CAGUAUCGACAGCCCUUCCA; listed as RNA, chemistry not given here)
[1]
  Secreted PCSK9: 30.59 ng/mL
[2]
  Secreted PCSK9: 16.54 ng/mL
25 ng mRNA:12.5 ng gRNA
  Percent reduction in PCSK9 secretion: 57.06%
50 ng mRNA:25 ng gRNA
  Percent reduction in PCSK9 secretion: 79.9%
  Average percent reduction in PCSK9 secretion: 68.48%

## TG-06-125 (guide AGAAAGAGCAAGCCUCAUGU; listed as RNA, chemistry not given here)
[1]
  Secreted PCSK9: 46.11 ng/mL
[2]
  Secreted PCSK9: 24.93 ng/mL
25 ng mRNA:12.5 ng gRNA
  Percent reduction in PCSK9 secretion: 35.28%
50 ng mRNA:25 ng gRNA
  Percent reduction in PCSK9 secretion: 69.7%
  Average percent reduction in PCSK9 secretion: 52.49%

## TG-06-126 (guide CCUUUUCAUCCUCCUGCCUG; listed as RNA, chemistry not given here)
[1]
  Secreted PCSK9: 44.82 ng/mL
[2]
  Secreted PCSK9: 23.48 ng/mL
25 ng mRNA:12.5 ng gRNA
  Percent reduction in PCSK9 secretion: 37.09%
50 ng mRNA:25 ng gRNA
  Percent reduction in PCSK9 secretion: 71.46%
  Average percent reduction in PCSK9 secretion: 54.27%

## TG-06-127 (guide UCCUCCUGCCUGGUACACAA; listed as RNA, chemistry not given here)
[1]
  Secreted PCSK9: 49.1 ng/mL
[2]
  Secreted PCSK9: 22.57 ng/mL
25 ng mRNA:12.5 ng gRNA
  Percent reduction in PCSK9 secretion: 31.08%
50 ng mRNA:25 ng gRNA
  Percent reduction in PCSK9 secretion: 72.56%
  Average percent reduction in PCSK9 secretion: 51.82%

## TG-06-128 (guide AGAAAUCAACUGGACAAGCA; listed as RNA, chemistry not given here)
[1]
  Secreted PCSK9: 62.29 ng/mL
[2]
  Secreted PCSK9: 42.21 ng/mL
25 ng mRNA:12.5 ng gRNA
  Percent reduction in PCSK9 secretion: 12.57%
50 ng mRNA:25 ng gRNA
  Percent reduction in PCSK9 secretion: 48.7%
  Average percent reduction in PCSK9 secretion: 30.63%

## TG-06-129 (guide UUUUACACACCAUGUUCAAG; listed as RNA, chemistry not given here)
[1]
  Secreted PCSK9: 90.82 ng/mL
[2]
  Secreted PCSK9: 59.93 ng/mL
25 ng mRNA:12.5 ng gRNA
  Percent reduction in PCSK9 secretion: 27.47%
50 ng mRNA:25 ng gRNA
  Percent reduction in PCSK9 secretion: 27.16%
  Average percent reduction in PCSK9 secretion: 0.16%

## TG-06-131 (guide UGAACAUGGUGUGUAAAAGG; listed as RNA, chemistry not given here)
[1]
  Secreted PCSK9: 57.89 ng/mL
[2]
  Secreted PCSK9: 28.4 ng/mL
25 ng mRNA:12.5 ng gRNA
  Percent reduction in PCSK9 secretion: 18.74%
50 ng mRNA:25 ng gRNA
  Percent reduction in PCSK9 secretion: 65.48%
  Average percent reduction in PCSK9 secretion: 42.11%

## TG-06-132 (guide AGAAGAUUCAAUUUGCAAAG; listed as RNA, chemistry not given here)
[1]
  Secreted PCSK9: 75.01 ng/mL
[2]
  Secreted PCSK9: 56.68 ng/mL
25 ng mRNA:12.5 ng gRNA
  Percent reduction in PCSK9 secretion: 5.29%
50 ng mRNA:25 ng gRNA
  Percent reduction in PCSK9 secretion: 31.11%
  Average percent reduction in PCSK9 secretion: 12.91%

## TG-06-134 (guide GAAUUCUAUGGUAGGCACAA; listed as RNA, chemistry not given here)
[1]
  Secreted PCSK9: 57.45 ng/mL
[2]
  Secreted PCSK9: 43.79 ng/mL
25 ng mRNA:12.5 ng gRNA
  Percent reduction in PCSK9 secretion: 19.37%
50 ng mRNA:25 ng gRNA
  Percent reduction in PCSK9 secretion: 46.77%
  Average percent reduction in PCSK9 secretion: 33.07%

## TG-06-135 (guide GGAAAGCUGAGCUUGUGCCU; listed as RNA, chemistry not given here)
[1]
  Secreted PCSK9: 44.59 ng/mL
[2]
  Secreted PCSK9: 25.66 ng/mL
25 ng mRNA:12.5 ng gRNA
  Percent reduction in PCSK9 secretion: 37.42%
50 ng mRNA:25 ng gRNA
  Percent reduction in PCSK9 secretion: 68.82%
  Average percent reduction in PCSK9 secretion: 53.12%

## TG-06-139 (guide AGGAGCAGCUAGUUGGUAAG; listed as RNA, chemistry not given here)
[1]
  Secreted PCSK9: 25.45 ng/mL
[2]
  Secreted PCSK9: 15.03 ng/mL
25 ng mRNA:12.5 ng gRNA
  Percent reduction in PCSK9 secretion: 64.28%
50 ng mRNA:25 ng gRNA
  Percent reduction in PCSK9 secretion: 81.73%
  Average percent reduction in PCSK9 secretion: 73.01%

## TG-06-140 (guide AAACUUAGCCUGGACCCCCU; listed as RNA, chemistry not given here)
[1]
  Secreted PCSK9: 59.94 ng/mL
[2]
  Secreted PCSK9: 61.68 ng/mL
25 ng mRNA:12.5 ng gRNA
  Percent reduction in PCSK9 secretion: 15.87%
50 ng mRNA:25 ng gRNA
  Percent reduction in PCSK9 secretion: 25.04%
  Average percent reduction in PCSK9 secretion: 20.45%

## TG-06-141 (guide ACUGGCCUUAACCUGGCAGC; listed as RNA, chemistry not given here)
Huh7, LTRP5-ADD-ZIM3 mRNA + gRNA scaffold 316 v1, 6 days post-transfection, averaged from two doses, relative to non-targeting gRNA
  average reduction in secreted PCSK9 levels: 82.75%
[1]
  Secreted PCSK9: 12.58 ng/mL
[2]
  Secreted PCSK9: 13.86 ng/mL
25 ng mRNA:12.5 ng gRNA
  Percent reduction in PCSK9 secretion: 82.34%
50 ng mRNA:25 ng gRNA
  Percent reduction in PCSK9 secretion: 83.16%
  Average percent reduction in PCSK9 secretion: 82.75%

## TG-06-142 (guide UUCCACUGGCCUUAACCUGG; listed as RNA, chemistry not given here)
[1]
  Secreted PCSK9: 27.27 ng/mL
[2]
  Secreted PCSK9: 30.87 ng/mL
25 ng mRNA:12.5 ng gRNA
  Percent reduction in PCSK9 secretion: 61.73%
50 ng mRNA:25 ng gRNA
  Percent reduction in PCSK9 secretion: 62.48%
  Average percent reduction in PCSK9 secretion: 62.1%
